The text below walks through data of ChEMBL document CHEMBL4334495, “Design and Biological Evaluation of m-Xylene Thioether-Stapled Short Helical Peptides Targeting the HIV-1 gp41 Hexameric Coiled-Coil Fusion Complex” (J Med Chem, 2019).

The source made the active and inactive calls. The rule behind the calls is not given here. Starred links: 1 amine or outer side, 2 acyl side, 3 side chain; linkers in the order of their positions; H or OH if unused. Positions of bridges follow the written chain, without caps; N, C: chain ends. Non-standard residues stand in square brackets, D forms with d. Residues, ends and D or L forms follow the SMILES beside them. ξ: configuration not given here. mXylylene = c1cc(C[*:1])cc(C[*:2])c1; ξhCys = NC(CCS)C(=O)O

Series [1] addresses Envelope glycoprotein gp160 (Human immunodeficiency virus 1) (UniProt Q6QLK5). Description: Binding affinity to HIV1 GP41 using GP41 NHR derived N36 peptide assessed as formation of oligomeric complex at 100 uM incubated for 30 mins by Coomassie blue R250 staining based Native-PAGE analysis.
For series [2] the target is unchanged. As to the kind of experiment: Synergistic inhibition of HIV1 gp41-induced cell-cell fusion between viral envelope expressing human HL2/3 cells to CD4/CCR5 receptor expressing TZM-bl cells assessed as combination index at 4:1 compound to HP23 ratio incubated for 6 hrs by luciferase reporter gene assay.
Series [3] has the same target. As to the kind of experiment: Ratio of EC50 for inhibition of HIV1 gp41-induced cell-cell fusion between viral envelope expressing human HL2/3 cells to CD4/CCR5 receptor expressing TZM-bl cells in absence of HP23 to EC50 for inhibition of HIV1 gp41-induced cell-cell fusion between viral envelope expressing human HL2/3 cells to CD4/CCR5 receptor expressing TZM-bl cells at 2:1 compound to HP23 ratio.

Series [4] has as its system Human immunodeficiency virus 1. As to the kind of experiment: Synergistic antiviral activity against X4 tropic HIV-1 subtype-B 3B infected in human MT2 cells or CEMx174 5.25 M7 cells assessed as reduction in p24 Gag protein production by measuring combination index at 6:1 compound to HP23 ratio measured at 4 days post-infection by ELISA. It counts as functional, HIV-1 group M. In general terms: In an ELISA, binding on a coated surface is turned into a signal by an enzyme label.

Series [5] relates to Human immunodeficiency virus 1. As to the kind of experiment: Synergistic antiviral activity against X4 tropic HIV-1 subtype-B 3B infected in human MT2 cells or CEMx174 5.25 M7 cells assessed as reduction in p24 Gag protein production by measuring combination index at 24:1 compound to HP23 ratio measured at 4 days post-infection by ELISA. It is filed as functional, HIV-1 group M.

Series [6] relates to Human immunodeficiency virus 1. Description: Antiviral activity against R5 tropic HIV-1 subtype-B Bal infected in human MT2 cells or CEMx174 5.25 M7 cells assessed as reduction in p24 Gag protein production at 12:1 ratio of compound to HP23 measured at 4 days post-infection by ELISA. It counts as functional, cell-based, HIV-1 group M. The settings on record: Human immunodeficiency virus 1, Bal, 96 h.

In series [7] the test system is Human immunodeficiency virus 1. As to the kind of experiment: Ratio of EC50 for antiviral activity against R5 tropic HIV-1 subtype-B Bal infected in human MT2 cells or CEMx174 5.25 M7 cells in absence of HP23 to EC50 for antiviral activity against R5 tropic HIV-1 subtype-B Bal infected in human MT2 cells or CEMx174 5.25 M7 cells at 24:1 compound to HP23 ratio. It counts as functional, HIV-1 group M.

Series [8] has as its system Human immunodeficiency virus 1. Description: Synergistic antiviral activity against T20 resistant HIV1 NL4-3 harboring with V38E/N42S mutant infected in human MT2 cells or CEMx174 5.25 M7 cells assessed as reduction in p24 Gag protein production by measuring combination index at 14000:1 compound to HP23 ratio measured at 4 days post-infection by ELISA. It counts as functional.

Series [9] concerns Human immunodeficiency virus 1. Description: Antiviral activity against T20 resistant HIV1 NL4-3 harboring with V38E/N42S mutant infected in human MT2 cells or CEMx174 5.25 M7 cells assessed as reduction in p24 Gag protein production at 14000:1 compound to HP23 ratio measured at 4 days post-infection by ELISA. It counts as functional, organism-based.
The subject of series [10] is Human immunodeficiency virus 1. Description: Ratio of EC50 for antiviral activity against T20 resistant HIV1 NL4-3 harboring with V38E/N42S mutant infected in human MT2 cells or CEMx174 5.25 M7 cells in absence of HP23 to EC50 for antiviral activity against T20 resistant HIV1 NL4-3 harboring with V38E/N42S mutant infected in human MT2 cells or CEMx174 5.25 M7 cells at 7000:1 compound to HP23 ratio. It counts as functional.

Series [11] concerns Human immunodeficiency virus 1. Description: Ratio of EC50 for antiviral activity against T20 resistant HIV1 NL4-3 harboring with V38E/N42T mutant infected in human MT2 cells or CEMx174 5.25 M7 cells in absence of HP23 to EC50 for Antiviral activity against T20 resistant HIV1 NL4-3 harboring with V38E/N42T mutant infected in human MT2 cells or CEMx174 5.25 M7 cells at 600:1 compound to HP23 ratio. It counts as functional.

Series [12] has as its system Human immunodeficiency virus 1. As to the kind of experiment: Synergistic antiviral activity against T2635 resistant HIV1 LAI harboring Q66R mutant infected in human MT2 cells or CEMx174 5.25 M7 cells assessed as reduction in p24 Gag protein production by measuring combination index at 12.5:1 compound ratio measured at 4 days post infection by ELISA. It is filed as functional, M:B_Lai.

For series [13], the system named is Human immunodeficiency virus 1. As to the kind of experiment: Synergistic antiviral activity against T2635 resistant HIV1 LAI harboring Q66R mutant infected in human MT2 cells or CEMx174 5.25 M7 cells assessed as reduction in p24 Gag protein production by measuring combination index at 50:1 compound ratio measured at 4 days post infection by ELISA. It is filed as functional, M:B_Lai.

Series [14] is described as follows: Metabolic stability in rat plasma assessed as parent compound remaining at 3 to 100 uM after 4 hrs by RP-HPLC analysis. It counts as ADME, cell-free. The note with it: read-out: Stability.
In series [15] the target is Envelope glycoprotein gp160 (Human immunodeficiency virus 1) (UniProt Q6QLK5). Description: Ratio of EC50 for inhibition of HIV1 gp41-induced cell-cell fusion between viral envelope expressing human HL2/3 cells to CD4/CCR5 receptor expressing TZM-bl cells in absence of HP23 to EC50 for inhibition of HIV1 gp41-induced cell-cell fusion between viral envelope expressing human HL2/3 cells to CD4/CCR5 receptor expressing TZM-bl cells at 4:1 ratio of hCS6ERE to compound.
Envelope glycoprotein gp160 (Human immunodeficiency virus 1), sequence (Q6QLK5 1-814): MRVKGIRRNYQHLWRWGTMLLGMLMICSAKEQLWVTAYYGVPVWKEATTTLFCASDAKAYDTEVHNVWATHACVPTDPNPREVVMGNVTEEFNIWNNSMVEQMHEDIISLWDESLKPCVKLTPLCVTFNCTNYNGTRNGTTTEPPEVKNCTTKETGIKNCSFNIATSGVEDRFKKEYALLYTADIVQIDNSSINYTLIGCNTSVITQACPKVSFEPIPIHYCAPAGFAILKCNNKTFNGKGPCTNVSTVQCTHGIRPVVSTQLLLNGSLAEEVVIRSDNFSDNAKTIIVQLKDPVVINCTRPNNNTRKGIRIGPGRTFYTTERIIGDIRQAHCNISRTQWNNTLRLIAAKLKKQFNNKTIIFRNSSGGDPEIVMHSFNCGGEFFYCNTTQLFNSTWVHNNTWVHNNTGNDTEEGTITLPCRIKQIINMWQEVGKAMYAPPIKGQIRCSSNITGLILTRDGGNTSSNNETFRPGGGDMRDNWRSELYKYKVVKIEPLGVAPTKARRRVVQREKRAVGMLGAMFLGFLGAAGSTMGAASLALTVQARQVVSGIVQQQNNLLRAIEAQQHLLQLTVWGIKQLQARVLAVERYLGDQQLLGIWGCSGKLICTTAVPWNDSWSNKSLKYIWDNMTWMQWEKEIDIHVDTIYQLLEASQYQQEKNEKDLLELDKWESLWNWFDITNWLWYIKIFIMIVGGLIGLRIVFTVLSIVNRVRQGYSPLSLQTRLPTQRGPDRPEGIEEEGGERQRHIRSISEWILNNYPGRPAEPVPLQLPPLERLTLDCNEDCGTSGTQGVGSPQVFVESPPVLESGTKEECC

For series [16] the target is unchanged. As to the kind of experiment: Ratio of EC50 for inhibition of HIV1 gp41-induced cell-cell fusion between viral envelope expressing human HL2/3 cells to CD4/CCR5 receptor expressing TZM-bl cells in absence of HP23 to EC50 for inhibition of HIV1 gp41-induced cell-cell fusion between viral envelope expressing human HL2/3 cells to CD4/CCR5 receptor expressing TZM-bl cells at 1:1 ratio of hCS6ERE to compound.

Series [17] deals with Human immunodeficiency virus 1. As to the kind of experiment: Ratio of EC50 for antiviral activity against R5 tropic HIV-1 subtype-B Bal infected in human MT2 cells or CEMx174 5.25 M7 cells in absence of hCS6ERE to EC50 for antiviral activity against R5 tropic HIV-1 subtype-B Bal infected in human MT2 cells or CEMx174 5.25 M7 cells at 12:1 ratio of hCS6ERE to compound. It counts as functional, HIV-1 group M.

The subject of series [18] is Human immunodeficiency virus 1. As to the kind of experiment: Antiviral activity against HIV1 NL4-3 infected in human MT2 cells or CEMx174 5.25 M7 cells assessed as reduction in p24 Gag protein production at 5:1 hCS6ERE to compound ratio measured at 4 days post-infection by ELISA. It is filed as functional, organism-based. The note with it: Human immunodeficiency virus 1, NL4-3, 96 h.

Series [19] relates to Human immunodeficiency virus 1. As to the kind of experiment: Ratio of EC50 for antiviral activity against T20 resistant HIV1 NL4-3 harboring with V38E/N42S mutant infected in human MT2 cells or CEMx174 5.25 M7 cells in absence of hCS6ERE to EC50 for antiviral activity against T20 resistant HIV1 NL4-3 harboring with V38E/N42S mutant infected in human MT2 cells or CEMx174 5.25 M7 cells at 14000:1 hCS6ERE to compound ratio. It is filed as functional.

One may read the EC50 as the concentration giving half of the maximal effect. In the case of `CC[C@H](C)[C@H](NC(C)=O)C(=O)N[C@@H](CCC(=O)O)C(=O)N[C@@H](CCC(=O)O)C(=O)N[C@@H](CC(C)C)C(=O)N[C@H](C(=O)NC1CCSCc2cccc(c2)CSCCC(C(=O)N[C@@H](CCC(N)=O)C(=O)N[C@@H](CCC(N)=O)C(=O)N[C@@H](CCCNC(=N)N)C(=O)N[C@@H](CCCCN)C(=O)N[C@@H](CC(N)=O)C(=O)N[C@@H](CCC(=O)O)C(=O)N[C@@H](CCC(=O)O)C(=O)N[C@@H](C)C(=O)N[C@@H](CC(C)C)C(=O)N[C@@H](CCCNC(=N)N)C(=O)N[C@@H](CCC(=O)O)C(=O)N[C@@H](CC(C)C)C(N)=O)NC(=O)[C@H](CCC(N)=O)NC(=O)[C@H](C)NC(=O)[C@H](C)NC1=O)[C@@H](C)CC` (some centres undefined) (Ac-IEELI[ξhCys]AAQ[ξhCys]QQRKNEEALREL-NH2; linker 6-10 via mXylylene), the outcome in [1] was Active. For the same compound, the CI in series [2] was determined as 0.6; in series [4], 0.8; in series [5] it was 0.9; in series [8] it was 0.6; in series [12], 0.7; in [13], 0.4. Besides, the Ratio EC50 in [3] was 2; in series [7] it was 2.6; in series [10], 2.7; in [11], 2.2. Also, the figures for the EC50 in series [6] and in series [9] were 6 nM and 3170 nM, respectively. Besides, the remaining at 4 h, up to 100 µM in [14] stood at 100%.

For H-EMTWEEWEKKIEEYTKKIEEILK-OH, the Ratio EC50 in series [15] is 6.2; in series [16] it was 1; in [17] it was 2.6; in [19], 7. For the same compound, the EC50 in series [18] was determined as 0.9 nM.
